The source of these data is patent EP0325571B1, “New amines, their use and preparation” (priority 1988, dated 1989).

Like-named read-outs stand apart in the source and are kept apart here.

The subject of data set [1] is portal vein. The data set can be described thus: Ca-antagonistic effect on isolated portal vein (spontaneous myogenic activity). More on the design: species or system rat. To be noted: 10 mM K^+-solution added, cumulative doses. The source says: (§1) b) Antagonistic effect to noradrenaline and calcium on the portal vein
(§2) Preparation of isolated portal vein from rat
(§3) Animals : Albino, male rats, weighing about 200 g.
(§4) The rat is killed by a blow on the neck and decapitated. The abdomen is opened, the vein is dissected free from fat, cut open longitudinally and mounted in an organ bath. Changes in isometric tension is registered by a force displacement transducer, connected to an amplifier and a writing oscillograph.
Ca - antagonistic effect on portal vein
10 mM K^+-solution is added to the Krebs buffer to stabilize the spontaneous myogenic activity of the vein. The amplitude of the muscle contractions is measued. The test substance is added to the bath in cumulative doses until total inhibition is obtained.

Data set [2] has as its system portal vein. The data set can be described thus: Noradrenaline antagonism on isolated portal vein. More on the design: species or system rat. The conditions noted are these: 10 min.
Excerpt: as §1, §2, §3, §4
Noradrenaline - antagonism on portal vein
Doses: Noradrenaline 3 x 10-^7 M
The chosen doses give about 70% of maximal response. The agonist is added to the bath at 10-minutes intervals. When reproducible contractions are obtained a fixed concentration of the test substance is added to the bath. After an incubation period of 10 minutes noradrenaline is added. The next concentration of the test substance is added when the original response of the agonist is obtained.
The antagonistic effect of the substance is calculated as per cent inhibition of the mean response by three preceding doses of the agonist.

For a further data set, the system named is isolated urinary bladder. The data set can be described thus: Anticholinergic activity on isolated urinary bladder (inhibition of carbachol-induced contraction of bladder strips). Details: species or system guinea-pigs. To be noted: 60 minutes incubation with antagonist. The source says:
a) Anticholinergic activity on isolated urinary bladder
Male guinea-pigs, weighing 250-350 g, were killed by a blow on the head and exsanguinated. The urinary bladders were quickly removed and placed in Na^+-Krebs, in which they were kept throughout the dissection procedure. The bladders were dissected free from adherent fat and connective tissue before they were cut open by an incision on each side from the base towards apex. The mucosa was carefully removed with a pair of scissors. Four strips, approximately 3-5 mm long were prepared by cutting in a parallel direction to the longitudinal muscle fibres, on each half of the bladder.
The bladder strips were immediately mounted vertically in 5 ml organ baths containing Na^+-Krebs solution aerated with carbogene gas to maintain the pH at about 7.4. The temperature, 37°C, was thermostatically controlled by a Lauda MS3 thermostatic circulator. The preparations were suspended between two hooks, one of which was connected to a Grass Instruments FT03 force transducer. The isomeric tension of the preparations was recorded by a Grass polygraph model 79D. The resting tension was applied to approximately 5 mN. The strips were allowed to stabilize for at least 45 minutes. During this period the resting tension was adjusted to 5 mN and the preparations were repeatedly washed.
In the preliminary experiments concentration - effect curves for carbachol (carbamylcholin chloride) were studied, in order to determine a suitable agonist concentration for inhibition studies with antagonist. The carbachol concentration chosen, 3 x 10^-6M, produced a submaximal contractant response (70%). In the inhibition studies, the strips were contracted with carbachol (3 x 10^-6M) every 15 minutes. The strips were washed three times after every agonist addition. This procedure was repeated until a reproducible contractant response was observed. A variation of about 10% for three subsequent contractions was accepted as reproducible.
Initially each antagonist was tested in a concentration of 10-t1M, on. two bladder-strips from different guinea-pigs. When a reproducible response with 3 × 10^-6M carbachol was obtained, the strips were incubated with the antagonist for 15 minutes before the next carbachol was added. If the antagonist produced more than 50% inhibition of the response to carbachol, a complete concentration-inhibition curve was also made. In the complete inhibition curves, the strips were then incubated for 60 minutes with a fixed concentration of the antagonist before the next addition of carbachol. The effect of the antagonists was calculated as per cent inhibition of the mean of the initial agonist-induced contractions. To generate concentration-inhibition curves the antagonists were studied in 6-8 concentrations and for each concentration a fresh preparation was used, i.e. the strips were only exposed to the antagonist once before they were discarded.

Data set [3] can be described thus: Acute toxicity in mice, i.v. bolus. Format: in vivo. The conditions noted are these: mouse, in vivo, iv; LD50-interval: between highest dose where 4 mice survived and lowest dose where 4 mice died within 5 minutes after i.v. bolus. How it is done: (§5) d) Acute toxicity in mice
(§6) The antagonists to be tested were dissolved in 0.9% NaCI. If they were not soluble in 0.9% NaCI they were dissolved in double distilled water. The solutions were prepared on the day of the experiment.
(§7) White male mice, 25 g, were placed in a mouse holder. The tested compounds were given as i.v. bolus doses in one of the four tail-veins, with a volume of 0.01 ml/g mouse. Each substance concentration was given to a group of four mice. 4-5 different concentrations of the antagonists were made and tested.
(§8) LDso-interval : The LD50-interval was between the highest dose where 4 mice survived and the lowest dose where 4 mice died within 5 minutes after an i.v. bolus dose.

In another data set the test system is mice. The data set can be described thus: Acute toxicity in mice, i.v. bolus. It is filed as in vivo. The conditions noted are these: lowest dose where 4 mice of 4 tested died within 5 minutes after i.v. bolus. The procedure:
as §5, §6, §7, §8

Another data set has as its system conscious rat. The data set can be described thus: Effect on heart rate in conscious rat (ECG). To be noted: i.v. injection. It is filed as in vivo. The source says:
e) Effect on heart rate in conscious rat
The animal is slightly anaestetized by ether and an infusion cannula is inserted into a tail vein. While still asleep the rat is placed in a simple device, made of a coarse, somewhat elastic net fixing the rat in a constant position. Electrodes are attached to the extremities and connected to an ECG-pulse pre-amplifier and a Grass polygraph. By recording the ECG, the heart rate can then be determined.
Before any substance is given the animal has regained consciousness and the heart rate has been constant for at least 15 minutes.
The substance is injected, i.v. in the infusion cannula and flushed with physiological saline.
ECG is recorded 0.25, 0.5, 1, 2, 3 and 5 minutes after completed injection and then every 5 minutes until the original heart rate is obtained.

The mark [4] stands for this setting: rat portal vein, read-out: Anti-Ca effect IC50.
[5] abbreviates: rat portal vein, noradrenaline 3 x 10-^7 M, 10 minutes incubation, read-out: Anti-N.A. effect IC50.
Setting [6] is: Cavia porcellus, 1 h, guinea-pig bladder strips contracted with carbachol 3 x 10^-6M, read-out: Antichol. effect IC50.
The mark [7] stands for this setting: Rattus norvegicus, read-out: Anti-Ca effect IC50 (M), rat portal vein.
The mark [8] stands for this setting: Rattus norvegicus, read-out: Anti-N.A. effect IC50 (M).
The mark [9] stands for this setting: read-out: Antichol. effect IC50, guinea-pig bladder strips contracted with carbachol 3 x 10^-6M.
[10] abbreviates: Cavia porcellus, 1 h, read-out: Antichol. effect IC50 (M), guinea-pig bladder strips contracted with carbachol 3 x 10^-6M.

In general, IC50 refers to the concentration that inhibits the measured activity by half. A word on the LD50: it is the dose expected to kill half of the subjects tested. Lower therefore signals a more toxic substance. With `CN(CCC(c1ccccc1)c1cc(O)ccc1O)C(C)(C)C` (stereo not drawn) [Compound 8], the IC50 with portal vein [1] (setting [4]) is greater than 5e-05 M; in the data set with portal vein [2] (setting [5]), 5e-05 M; with isolated urinary bladder (setting [6]) it was 3.1e-08 M. In data set [3], this molecule registered a 50% lethal dose (LD50) at 5 min greater than 6 mg/kg. In the data set with mice, this molecule displayed a Lethal dose greater than 6 mg/kg.
`Cc1ccc(O)c(C(CCN(C(C)C)C(C)C)c2ccccc2)c1` (stereo not drawn) [Compound 4, N,N-Diisopropyl-3-(2-hydroxy-5-methylphenyl)-3-phenylpropylamine]: the IC50 in the data set on portal vein [1] (setting [7]) is 6e-06 M; in the data set on portal vein [2] (setting [8]) it was 5.5e-06 M; in the data set with isolated urinary bladder (setting [9]), 1.5e-08 M. The 50% lethal dose (LD50) at 5 min in data set [3] is 30 to 40 mg/kg.
Consider `CC(C)N(CCC(c1ccccc1)c1cc(O)ccc1O)C(C)C` (stereo not drawn) [Compound 7], for which the figures for the IC50 in the data set with portal vein [1] (setting [4]), with portal vein [2] (setting [5]) and in the data set with isolated urinary bladder (setting [6]) were 6.5e-05 M, 5e-05 M and 1.9e-08 M, respectively. Moreover, in data set [3], the median lethal dose (LD50) at 5 min is 30 to 50 mg/kg. The same molecule gave a Lethal dose in the data set with mice of 50 mg/kg.
As for `Cc1ccc(O)c(C(CCN(C(C)C)C(C)C)c2ccccc2)c1.O=C(O)C(O)C(O)C(=O)O` (single isomer, unassigned; (+)) [Compound 4a, (+)-N,N-Diisopropyl-3-(2-hydroxy-5-methylphenyl)-3-phenylpropylamine hydrogen tartrate], the 50% inhibitory concentration (IC50) in the data set on portal vein [1] (read-out: Anti-Ca effect IC50, rat portal vein, tartrate) came to 6.5e-06 M; in the data set on isolated urinary bladder (read-out: Antichol. effect IC50, guinea-pig bladder strips contracted with carbachol 3 x 10^-6M, tartrate) it was 1.3e-08 M. This molecule came in with an LD50 at 5 min in data set [3] of 10 to 20 mg/kg.
For `CC(C)N(CCC(c1ccccc1)c1ccccc1O)C(C)C` (racemic) [Compound 1, N,N-Diisopropyl-3-(2-hydroxyphenyl)-3-phenylpropylamine], the IC50 in the data set with portal vein [1] (setting [4]) amounted to 1.5e-05 M; in the data set on portal vein [2] (setting [5]), 1e-05 M; with isolated urinary bladder (setting [6]) it was 1.8e-08 M. The “Effect on heart rate threshold dose” value with conscious rat lay in the range of 1 to 3 mg/kg. This molecule also yielded an LD50 at 5 min in data set [3] of 10 to 20 mg/kg. In the data set on mice, this molecule gave a Lethal dose of 20 mg/kg.
For `COc1ccccc1C(CCN(C)C(C)(C)C)c1ccccc1` (stereo not drawn) [Compound 2], the concentration for half-maximal inhibition (IC50) is 9e-06 M in the data set with portal vein [1] (setting [4]), 3.5e-06 M with portal vein [2] (setting [5]) and 1.5e-07 M with isolated urinary bladder (setting [6]). Besides, in data set [3], the 50% lethal dose (LD50) at 5 min lay within 10 to 20 mg/kg. This molecule showed a Lethal dose in the data set with mice of 20 mg/kg.
Turning to `CC(C)N(CCC(c1ccccc1O)c1ccccc1O)C(C)C` [Compound 13], the IC50 in the data set with portal vein [1] (setting [7]) was 1.5e-05 M; in the data set on portal vein [2] (setting [8]) it was 3e-05 M; in the data set on isolated urinary bladder (setting [10]), 9e-09 M. Moreover, the 50% lethal dose (LD50) at 5 min in data set [3] lay within 5 to 10 mg/kg. The same molecule showed a Lethal dose in the data set on mice of 10 mg/kg.
For the molecule `COc1ccccc1C(CCN(C)C)c1ccccc1` (stereo not drawn) [GB-A-1.169.944, N,N-dimethyl-3-(2-methoxyphenyl)-3-phenylpropylamine, reference compound], the 50% inhibitory concentration (IC50) with portal vein [1] (setting [4]) came out at 2.1e-05 M; in the data set with portal vein [2] (setting [5]) it was 4.4e-06 M; in the data set with isolated urinary bladder (setting [6]), 1.2e-06 M. For the same molecule, the 50% lethal dose (LD50) at 5 min in data set [3] lay in the range of 10 to 15 mg/kg. The same molecule had a Lethal dose with mice of 15 mg/kg.
Turning to `CC(CC(c1ccccc1)c1ccccc1)NC(C)(C)C` (stereo not drawn) [Terodiline, terodiline, reference compound], the IC50 in the data set with portal vein [1] (setting [4]) worked out at 1e-05 M; with portal vein [2] (setting [5]), 2.4e-06 M; in the data set on isolated urinary bladder (setting [6]) it was 5.2e-07 M. For the same molecule, in the data set on conscious rat, the “Effect on heart rate threshold dose” value is 1 to 3 mg/kg. In data set [3], this molecule displayed an LD50 at 5 min of 15 to 20 mg/kg. Also, the Lethal dose with mice turned out to be 20 mg/kg.
With `CC(C)N(CCC(c1ccccc1)c1ccccc1O)C(C)C` (single isomer, unassigned; (+)) [Compound 1a, (+)-N,N-Diisopropyl-3-(2-hydroxyphenyl)-3-phenylpropylamine], the IC50 in the data set on isolated urinary bladder (setting [6]) was 1.8e-08 M.
With `CN(CCC(c1ccccc1)c1ccccc1O)C(C)(C)C` (stereo not drawn) [Compound 9], the 50% inhibitory concentration (IC50) worked out at 2.5e-05 M with portal vein [1] (setting [4]), 5e-05 M in the data set on portal vein [2] (setting [5]) and 1.6e-08 M with isolated urinary bladder (setting [6]). Besides, the Lethal dose in the data set with mice stood at 20 mg/kg.
Consider `COc1ccccc1C(CCN(C(C)C)C(C)C)c1ccccc1` (stereo not drawn) [Compound 3], for which the figures for the IC50 in the data set on portal vein [1] (setting [7]), with portal vein [2] (setting [8]) and in the data set with isolated urinary bladder (setting [10]) were greater than 0.0001 M, 3.6e-06 M and 2.4e-07 M, respectively. The molecule also showed a 50% lethal dose (LD50) at 5 min in data set [3] of 3 to 10 mg/kg. Moreover, in the data set with mice, the Lethal dose is listed as 10 mg/kg.
`CC(C)N(CCC(c1ccccc1)c1ccccc1O)C(C)C` (single isomer, unassigned; (-)) [Compound 1b, (-)-N,N-diisopropyl-3-(2-hydroxyphenyl)-3-phenylpropylamine]: the IC50 with isolated urinary bladder (guinea-pig bladder strips contracted with carbachol 3 x 10^-6M, read-out: Antichol. effect IC50) was 1.4e-08 M.
Take `Cc1ccc(O)c(C(CCN(C(C)C)C(C)C)c2ccccc2)c1` (single isomer, unassigned) [Compound 4b, (-)-N,N-Diisopropyl-3-(2-hydroxy-5-methylphenyl)-3-phenylpropylamine hydrogen D(-)-tartrate]: the half-inhibitory concentration (IC50) with portal vein [1] (read-out: Anti-Ca effect IC50, rat portal vein) was found to be 6e-06 M; with isolated urinary bladder (setting [9]), 1.3e-06 M.
With `CN(CCC(c1ccccc1O)c1ccccc1O)C(C)(C)C` [Compound 5], the IC50 in the data set on portal vein [1] (setting [4]) turned out to be 3e-05 M; in the data set with portal vein [2] (setting [5]), 3.8e-05 M; in the data set with isolated urinary bladder (setting [6]), 4.9e-09 M. Moreover, in the data set on conscious rat, the “Effect on heart rate threshold dose” value fell in the range of 1 to 3 mg/kg. In data set [3], the LD50 at 5 min was 30 to 45 mg/kg. In the data set with mice, the Lethal dose is listed as 45 mg/kg.
For the molecule `COc1ccccc1C(CCN1C(C)(C)CCCC1(C)C)c1ccccc1` (stereo not drawn) [Compound 10], the IC50 in the data set with portal vein [1] (setting [4]) turned out to be 7e-06 M; in the data set on portal vein [2] (setting [5]), 4e-06 M; in the data set with isolated urinary bladder (setting [6]), 6.2e-08 M.
